Reference: paper PMC3382171 (PLoS ONE, 2012)

Experiments:
Test in all cases: biochemical
PKCiota = target: T1, PKCiota (Homo sapiens, UniProt P41743); conditions: read-out: Upstate KSS % inhibition at 1uM
T1 construct: gene PRKCI
Experimental: In these selectivity assays the concentration of ATP was set to the Km value of ATP for each kinase tested to allow for a relative potency comparison between the various kinases. The compounds were tested at 1 µM final concentration. […] (A) Kinase selectivity screen (KSS) performed at Upstate Biotechnology. […] (B) KSS performed at University of Dundee (Division of Signal Transduction Therapy). […] (PDF) Click here for additional data file.

IGF1R = IGF1R (Homo sapiens, UniProt P08069); parameters: Invitrogen SelectScreen kinase panel, percent inhibition at 1 uM, ATP at Km; conditions: read-out: Invitrogen KSS %Inh at 1 µM
IGF1R, sequence (P08069 whole entry): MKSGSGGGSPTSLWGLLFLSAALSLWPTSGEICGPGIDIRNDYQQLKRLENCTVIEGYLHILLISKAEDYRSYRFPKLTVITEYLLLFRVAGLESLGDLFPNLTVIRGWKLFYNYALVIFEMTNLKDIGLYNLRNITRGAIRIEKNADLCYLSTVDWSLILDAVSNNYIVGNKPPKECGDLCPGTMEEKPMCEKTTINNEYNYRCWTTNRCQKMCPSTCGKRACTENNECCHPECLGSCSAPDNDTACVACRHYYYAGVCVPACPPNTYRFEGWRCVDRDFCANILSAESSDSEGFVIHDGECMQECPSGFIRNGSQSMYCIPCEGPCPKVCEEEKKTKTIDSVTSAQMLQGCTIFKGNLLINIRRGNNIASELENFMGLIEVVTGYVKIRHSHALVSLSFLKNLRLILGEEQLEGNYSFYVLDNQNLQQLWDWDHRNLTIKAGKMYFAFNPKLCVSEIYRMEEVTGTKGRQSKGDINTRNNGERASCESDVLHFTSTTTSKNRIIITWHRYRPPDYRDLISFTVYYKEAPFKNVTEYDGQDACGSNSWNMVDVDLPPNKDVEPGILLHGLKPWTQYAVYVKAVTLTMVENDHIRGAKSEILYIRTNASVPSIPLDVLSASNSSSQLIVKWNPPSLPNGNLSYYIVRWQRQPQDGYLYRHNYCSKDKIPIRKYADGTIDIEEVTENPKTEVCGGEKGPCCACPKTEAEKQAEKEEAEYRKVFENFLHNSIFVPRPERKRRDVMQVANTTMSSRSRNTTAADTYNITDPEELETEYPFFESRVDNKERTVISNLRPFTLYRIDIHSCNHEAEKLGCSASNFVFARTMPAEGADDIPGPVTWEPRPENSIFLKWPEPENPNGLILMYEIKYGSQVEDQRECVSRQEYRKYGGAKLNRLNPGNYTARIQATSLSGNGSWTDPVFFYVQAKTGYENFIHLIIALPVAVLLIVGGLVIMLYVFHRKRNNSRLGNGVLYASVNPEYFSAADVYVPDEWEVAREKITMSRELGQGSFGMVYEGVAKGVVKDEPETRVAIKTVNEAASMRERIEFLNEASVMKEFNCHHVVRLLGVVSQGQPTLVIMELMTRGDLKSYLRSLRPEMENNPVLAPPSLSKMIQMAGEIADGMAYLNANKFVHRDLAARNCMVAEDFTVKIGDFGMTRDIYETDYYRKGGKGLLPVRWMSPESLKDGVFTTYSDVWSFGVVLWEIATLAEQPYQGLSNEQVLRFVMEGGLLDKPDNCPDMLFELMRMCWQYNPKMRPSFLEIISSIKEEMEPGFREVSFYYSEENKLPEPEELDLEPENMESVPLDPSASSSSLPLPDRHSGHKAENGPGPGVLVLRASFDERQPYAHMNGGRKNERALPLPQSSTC
Experimental: (§1) The METi and RAFi were screened against kinase panels (SelectScreen, Invitrogen; University of Dundee, Division of Signal Transduction Therapy, UK; Upstate Biotechnology/Millipore, Billerica, MA). In these selectivity assays the concentration of ATP was set to the Km value of ATP for each kinase tested to allow for a relative potency comparison between the various kinases. The compounds were tested at 1 µM final concentration. […] Supplementary file pone.0039653.s002.pdf: Figure S2 Kinase Selectivity Screen of RAFi. (A) Kinase selectivity screen (KSS) performed at University of Dundee (Division of Signal Transduction Therapy). Values in % inhibition of phosphorylation given 1 µM of RAFi compared to control. (B) KSS performed at Invitrogen (Selectscreen Service) compared to control. Values in % inhibition of phosphorylation given 1 µM of RAFi. (C) Cell based dose response kinase inhibition of indicated kinases by RAFi. (PDF) Click here for additional data file.

KIT = KIT (Homo sapiens, UniProt P10721); parameters: Invitrogen SelectScreen kinase panel, percent inhibition at 1 uM, ATP at Km; conditions: read-out: Invitrogen KSS %Inh at 1 µM
Experimental: as §1

MAP3K8 (COT) = MAP3K8 (COT) (Homo sapiens, UniProt P41279); parameters: Invitrogen SelectScreen kinase panel, percent inhibition at 1 uM, ATP at Km; conditions: read-out: Invitrogen KSS %Inh at 1 µM
Experimental: as §1

PLK2 = PLK2 (Homo sapiens, UniProt Q9NYY3); parameters: Invitrogen SelectScreen kinase panel, percent inhibition at 1 uM, ATP at Km; conditions: read-out: Invitrogen KSS %Inh at 1 µM
Experimental: as §1

EGFR (ErbB1) L861Q = EGFR (ErbB1) L861Q (Homo sapiens, UniProt P00533, L861Q); parameters: Invitrogen SelectScreen kinase panel, percent inhibition at 1 uM, ATP at Km; conditions: read-out: Invitrogen KSS %Inh at 1 µM
Experimental: as §1

GRK4 = GRK4 (Homo sapiens, UniProt P32298); parameters: Invitrogen SelectScreen kinase panel, percent inhibition at 1 uM, ATP at Km; conditions: read-out: Invitrogen KSS %Inh at 1 µM
Experimental: as §1

ERBB2 (HER2) = ERBB2 (HER2) (Homo sapiens, UniProt P04626); parameters: Invitrogen SelectScreen kinase panel, percent inhibition at 1 uM, ATP at Km; conditions: read-out: Invitrogen KSS %Inh at 1 µM
Experimental: as §1

RPS6KA5 (MSK1) = RPS6KA5 (MSK1) (Homo sapiens, UniProt O75582); parameters: Invitrogen SelectScreen kinase panel, percent inhibition at 1 uM, ATP at Km; conditions: read-out: Invitrogen KSS %Inh at 1 µM
Experimental: as §1

CLK1 = CLK1 (Homo sapiens, UniProt P49759); parameters: Invitrogen SelectScreen kinase panel, percent inhibition at 1 uM, ATP at Km; conditions: read-out: Invitrogen KSS %Inh at 1 µM
Experimental: as §1

PTK2 (FAK) = PTK2 (FAK) (Homo sapiens, UniProt Q05397); parameters: Invitrogen SelectScreen kinase panel, percent inhibition at 1 uM, ATP at Km; conditions: read-out: Invitrogen KSS %Inh at 1 µM
PTK2 (FAK), sequence (Q05397 whole entry): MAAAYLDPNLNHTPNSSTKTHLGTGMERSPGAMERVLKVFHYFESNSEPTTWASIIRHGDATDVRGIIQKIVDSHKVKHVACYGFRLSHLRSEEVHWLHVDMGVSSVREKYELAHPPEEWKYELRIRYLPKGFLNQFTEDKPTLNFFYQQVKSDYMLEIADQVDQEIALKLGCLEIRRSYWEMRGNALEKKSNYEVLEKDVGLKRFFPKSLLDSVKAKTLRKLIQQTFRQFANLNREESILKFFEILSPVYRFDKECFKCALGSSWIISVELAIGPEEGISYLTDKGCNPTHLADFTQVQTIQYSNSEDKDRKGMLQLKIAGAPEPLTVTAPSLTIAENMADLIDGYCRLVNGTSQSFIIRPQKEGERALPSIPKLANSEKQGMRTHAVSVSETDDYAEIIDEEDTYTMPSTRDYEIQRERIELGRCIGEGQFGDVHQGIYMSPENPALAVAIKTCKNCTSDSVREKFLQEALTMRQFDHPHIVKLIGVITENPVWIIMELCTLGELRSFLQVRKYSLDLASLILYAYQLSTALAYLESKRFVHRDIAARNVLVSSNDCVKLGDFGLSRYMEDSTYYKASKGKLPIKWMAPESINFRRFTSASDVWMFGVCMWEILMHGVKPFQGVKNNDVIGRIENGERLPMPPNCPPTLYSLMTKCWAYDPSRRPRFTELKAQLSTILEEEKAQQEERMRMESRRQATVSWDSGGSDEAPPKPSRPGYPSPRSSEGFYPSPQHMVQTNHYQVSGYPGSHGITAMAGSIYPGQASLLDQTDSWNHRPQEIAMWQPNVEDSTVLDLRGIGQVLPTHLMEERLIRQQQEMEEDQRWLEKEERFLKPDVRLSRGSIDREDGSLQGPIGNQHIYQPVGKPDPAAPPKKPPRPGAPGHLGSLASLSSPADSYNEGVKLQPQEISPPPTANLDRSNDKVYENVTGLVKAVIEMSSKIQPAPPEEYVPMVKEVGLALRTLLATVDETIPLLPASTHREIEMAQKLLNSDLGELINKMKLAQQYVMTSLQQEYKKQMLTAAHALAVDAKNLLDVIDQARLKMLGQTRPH
Experimental: as §1

PAK2 (PAK65) = PAK2 (PAK65) (Homo sapiens, UniProt Q13177); parameters: Invitrogen SelectScreen kinase panel, percent inhibition at 1 uM, ATP at Km; conditions: read-out: Invitrogen KSS %Inh at 1 µM
Experimental: as §1

HCK = HCK (Homo sapiens, UniProt P08631); parameters: Invitrogen SelectScreen kinase panel, percent inhibition at 1 uM, ATP at Km; conditions: read-out: Invitrogen KSS %Inh at 1 µM
Experimental: as §1

MAPK1/ERK2 = MAPK1/ERK2 (Homo sapiens, UniProt P28482); parameters: Invitrogen SelectScreen kinase panel, percent inhibition at 1 uM, ATP at Km; conditions: read-out: Invitrogen KSS %Inh at 1 µM
Experimental: as §1

PAK6 = PAK6 (Homo sapiens, UniProt Q9NQU5); parameters: Invitrogen SelectScreen kinase panel, percent inhibition at 1 uM, ATP at Km; conditions: read-out: Invitrogen KSS %Inh at 1 µM
PAK6, sequence (Q9NQU5 whole entry): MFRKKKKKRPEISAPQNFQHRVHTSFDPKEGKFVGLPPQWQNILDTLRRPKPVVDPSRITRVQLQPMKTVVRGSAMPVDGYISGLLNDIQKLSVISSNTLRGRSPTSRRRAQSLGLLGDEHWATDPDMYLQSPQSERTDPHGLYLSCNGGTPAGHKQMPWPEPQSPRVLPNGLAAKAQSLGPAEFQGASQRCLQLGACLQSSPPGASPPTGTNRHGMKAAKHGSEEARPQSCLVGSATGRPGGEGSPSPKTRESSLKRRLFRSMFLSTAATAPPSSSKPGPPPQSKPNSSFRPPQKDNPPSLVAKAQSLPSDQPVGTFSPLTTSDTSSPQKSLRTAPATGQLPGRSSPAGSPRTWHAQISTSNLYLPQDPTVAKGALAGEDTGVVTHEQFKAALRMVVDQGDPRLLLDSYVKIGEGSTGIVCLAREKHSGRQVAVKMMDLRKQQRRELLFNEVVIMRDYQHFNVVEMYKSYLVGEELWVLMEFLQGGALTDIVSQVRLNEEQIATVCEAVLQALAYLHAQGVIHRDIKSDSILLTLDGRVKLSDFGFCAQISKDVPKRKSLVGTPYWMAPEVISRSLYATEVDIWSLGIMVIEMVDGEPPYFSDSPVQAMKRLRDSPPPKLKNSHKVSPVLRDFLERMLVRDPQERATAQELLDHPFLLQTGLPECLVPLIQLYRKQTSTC
Experimental: as §1

CAMK2A (CaMKII alpha) = CAMK2A (CaMKII alpha) (Homo sapiens, UniProt Q9UQM7); parameters: Invitrogen SelectScreen kinase panel, percent inhibition at 1 uM, ATP at Km; conditions: read-out: Invitrogen KSS %Inh at 1 µM
Experimental: as §1

SGKL (SGK3) = SGKL (SGK3) (Homo sapiens, UniProt Q96BR1); parameters: Invitrogen SelectScreen kinase panel, percent inhibition at 1 uM, ATP at Km; conditions: read-out: Invitrogen KSS %Inh at 1 µM
Experimental: as §1

INSR = INSR (Homo sapiens, UniProt P06213); parameters: Invitrogen SelectScreen kinase panel, percent inhibition at 1 uM, ATP at Km; conditions: read-out: Invitrogen KSS %Inh at 1 µM
INSR, sequence (P06213 whole entry): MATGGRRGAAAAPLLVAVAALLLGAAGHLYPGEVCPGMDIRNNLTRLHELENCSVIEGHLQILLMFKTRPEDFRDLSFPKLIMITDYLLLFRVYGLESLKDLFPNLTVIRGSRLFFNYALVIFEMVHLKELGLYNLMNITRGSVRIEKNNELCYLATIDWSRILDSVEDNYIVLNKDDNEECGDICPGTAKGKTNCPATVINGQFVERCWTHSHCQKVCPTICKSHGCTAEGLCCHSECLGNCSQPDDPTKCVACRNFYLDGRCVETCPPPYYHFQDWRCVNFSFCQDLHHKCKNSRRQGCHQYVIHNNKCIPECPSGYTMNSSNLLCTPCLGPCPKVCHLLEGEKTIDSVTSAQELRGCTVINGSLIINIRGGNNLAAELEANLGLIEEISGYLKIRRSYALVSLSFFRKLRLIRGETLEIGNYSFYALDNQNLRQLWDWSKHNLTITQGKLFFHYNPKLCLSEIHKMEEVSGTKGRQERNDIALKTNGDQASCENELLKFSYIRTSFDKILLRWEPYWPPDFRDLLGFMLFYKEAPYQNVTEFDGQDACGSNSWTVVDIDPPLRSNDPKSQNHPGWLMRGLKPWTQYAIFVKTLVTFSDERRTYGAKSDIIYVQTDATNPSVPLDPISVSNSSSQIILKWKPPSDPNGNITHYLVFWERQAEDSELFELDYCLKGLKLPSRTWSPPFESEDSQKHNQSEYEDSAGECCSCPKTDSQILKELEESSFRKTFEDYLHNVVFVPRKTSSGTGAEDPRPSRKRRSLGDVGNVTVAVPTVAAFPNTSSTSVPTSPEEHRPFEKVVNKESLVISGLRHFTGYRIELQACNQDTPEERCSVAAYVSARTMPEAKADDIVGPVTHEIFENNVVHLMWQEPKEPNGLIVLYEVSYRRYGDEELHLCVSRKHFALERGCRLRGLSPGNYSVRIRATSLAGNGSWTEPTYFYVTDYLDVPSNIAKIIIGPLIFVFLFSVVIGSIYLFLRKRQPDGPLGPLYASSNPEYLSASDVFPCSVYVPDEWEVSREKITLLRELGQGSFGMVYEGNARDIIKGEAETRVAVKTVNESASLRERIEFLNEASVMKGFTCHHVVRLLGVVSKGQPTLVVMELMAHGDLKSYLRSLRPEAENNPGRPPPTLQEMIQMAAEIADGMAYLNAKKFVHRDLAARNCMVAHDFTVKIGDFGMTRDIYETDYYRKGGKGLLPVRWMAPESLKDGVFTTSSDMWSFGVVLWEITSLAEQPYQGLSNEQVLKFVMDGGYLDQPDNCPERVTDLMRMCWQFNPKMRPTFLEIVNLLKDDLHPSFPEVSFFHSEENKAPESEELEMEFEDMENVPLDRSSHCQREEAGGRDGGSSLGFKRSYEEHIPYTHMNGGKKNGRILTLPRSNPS
Experimental: as §1

MET M1250T = MET M1250T (Homo sapiens, UniProt P08581, M1250T); parameters: Invitrogen SelectScreen kinase panel, percent inhibition at 1 uM, ATP at Km; conditions: read-out: Invitrogen KSS %Inh at 1 µM
Experimental: as §1

KIT T670I = KIT T670I (Homo sapiens, UniProt P10721, T670I); parameters: Invitrogen SelectScreen kinase panel, percent inhibition at 1 uM, ATP at Km; conditions: read-out: Invitrogen KSS %Inh at 1 µM
Experimental: as §1

AMPK A1/B1/G1 = target: T2, AMPK A1/B1/G1 (Homo sapiens, UniProt Q13131); parameters: Invitrogen SelectScreen kinase panel, percent inhibition at 1 uM, ATP at Km; conditions: read-out: Invitrogen KSS %Inh at 1 µM
T2 construct: gene PRKAA1; A1/B1/G1
Experimental: as §1

T1 sequence (P41743 whole entry): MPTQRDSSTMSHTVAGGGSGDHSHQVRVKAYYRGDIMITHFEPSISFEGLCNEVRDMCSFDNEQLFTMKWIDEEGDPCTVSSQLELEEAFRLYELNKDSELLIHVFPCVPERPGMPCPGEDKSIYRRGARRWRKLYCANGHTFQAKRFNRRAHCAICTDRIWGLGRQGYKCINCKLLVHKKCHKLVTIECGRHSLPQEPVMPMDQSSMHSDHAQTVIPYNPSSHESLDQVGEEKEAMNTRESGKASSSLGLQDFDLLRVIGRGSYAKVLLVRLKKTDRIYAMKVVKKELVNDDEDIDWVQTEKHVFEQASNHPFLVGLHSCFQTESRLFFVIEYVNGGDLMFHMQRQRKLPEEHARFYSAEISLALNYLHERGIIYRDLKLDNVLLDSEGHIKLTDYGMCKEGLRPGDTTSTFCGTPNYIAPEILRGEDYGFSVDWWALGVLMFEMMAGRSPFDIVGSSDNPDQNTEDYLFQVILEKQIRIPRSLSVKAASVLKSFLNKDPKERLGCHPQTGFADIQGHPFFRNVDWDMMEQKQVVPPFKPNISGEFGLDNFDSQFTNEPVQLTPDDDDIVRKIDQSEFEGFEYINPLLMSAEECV

In the case of `OCCn1cc(-c2cnc3nnn(Cc4ccc5ncccc5c4)c3n2)cn1` [METi, PF-04217903], the inhibition at 1 µM (PKCiota) was 0%.
In the case of `N#CCCNc1nccc(-c2cn(CC(F)F)nc2-c2cnc3[nH]ccc3c2)n1` [RAFi, PF-04880594], the inhibition at 1 µM (IGF1R) was 9%, the inhibition at 1 µM (KIT) was 36% and the inhibition at 1 µM (MAP3K8 (COT)) was 24%. For the same molecule, the inhibition at 1 µM (PLK2) was 37%, the inhibition at 1 µM (EGFR (ErbB1) L861Q) was 5% and the inhibition at 1 µM (GRK4) was -18%. It also gave an inhibition at 1 µM (ERBB2 (HER2)) of 10%, an inhibition at 1 µM (RPS6KA5 (MSK1)) of 3% and an inhibition at 1 µM (CLK1) of 1%. For the same molecule, the inhibition at 1 µM (PTK2 (FAK)) was 12%, the inhibition at 1 µM (PAK2 (PAK65)) was 3% and the inhibition at 1 µM (HCK) was 5%. For the same molecule, the inhibition at 1 µM (MAPK1/ERK2) was 14%, the inhibition at 1 µM (PAK6) was 10% and the inhibition at 1 µM (CAMK2A (CaMKII alpha)) was -1%. The inhibition at 1 µM (SGKL (SGK3)) was -1%, the inhibition at 1 µM (INSR) was -4% and the inhibition at 1 µM (MET M1250T) was 7%. The inhibition at 1 µM (KIT T670I) was 36% and the inhibition at 1 µM (AMPK A1/B1/G1) was 16%.
